According to patent publication US11939351B2, “Amorphous mixture comprising a neutral mono- or oligosaccharide and an acidic non-carbohydrate component” (GLYCOM A/S, priority 2017, dated 2024):
Where two headings read alike, the source gives them in different places.

Assays:
[1] = Forced storage stability of 2′-FL and DFL mixture samples at 60° C. and 80° C., analysed by HPAEC (Example 2); type: physicochemical
Protocol: One gram of each sample, separately, was put into a 4 ml glass vial and closed with screw lid containing teflon […]. The 8-week storage sample was put into a 60° C. oven, followed by the 4-week and the 2-week samples 4 and 6 weeks later, respectively), so the incubation of all samples ended in the same time. Similar pattern of experimental design was followed with the samples to be measured at 80° C. (4-week, 2-week and 1-week samples). The samples were kept in a freezer until they were put into the oven at a given time. Standards were kept in a freezer until analysis. The stability samples and the standards were analysed by HPAEC.

[2] = type: physicochemical
Excerpt: This means that an amorphous 2′-FL according to the present invention, the pH of the 5 w/w % aqueous solution of which is around 3.5-4.5, has a slightly shorter shelf-life than that for an amorphous 2′-FL having a pH of 4.5-5.8. […] In this regard it can be concluded that a fucosylated neutral HMO other than 2′-FL is hydrolytically as stable as a non-fucosylated neutral HMO.

[3] = in the acidic samples (pH = 4.5)
[4] = in the neutral sample (pH = 7.0)

Row | SMILES | hydrolysis (into fucose and lactose) [1, 3] | hydrolysis (into fucose and lactose) [1, 4] | hydrolytic stability [2] | preferred pH range in which no substantial hydrolysis and rearrangement occur ([1]; estimated from the Example 2 data) | hydrolysis to fucose and lactose ([2]; at a pH around 4.0-4.5) | hydrolysis to fucose and lactose ([2]; at around a pH of 3.5)
1 | C[C@@H]1O[C@@H](O[C@H]2[C@H](O[C@H]3[C@H](O[C@@H]4O[C@@H](C)[C@@H](O)[C@@H](O)[C@@H]4O)[C@@H](O)C(O)O[C@@H]3CO)O[C@H](CO)[C@H](O)[C@@H]2O)[C@@H](O)[C@H](O)[C@@H]1O (some centres unmarked) [DFL, difucosyllactose] | did not undergo hydrolysis | did not undergo hydrolysis | hydrolytically stabile |  |  | 
2 | C[C@@H]1O[C@@H](O[C@H]2[C@H](O[C@H]3[C@H](O)[C@@H](O)C(O)O[C@@H]3CO)O[C@H](CO)[C@H](O)[C@@H]2O)[C@@H](O)[C@H](O)[C@@H]1O (some centres unmarked) [2′-FL, 2′-fucosyllactose] | slight hydrolysis | did not occur |  | 5.2-5.8 | still detectable | low degree of hydrolysis
